# Source: PMC7367873, “Dissecting the sequence determinants for dephosphorylation by the catalytic subunits of phosphatases PP1 and PP2A” (Nature Communications, 2020)
# Tested on: PP1c/PP2Ac
# Assay: PP1c versus PP2Ac specificity of p-sites (pairwise comparison / hierarchical clustering of phosphoproteomic data)
# Format: biochemical, human
# Settings: HeLa Kyoto lysate, 1 µM PP1c or PP2Ac
# Description: For phosphoproteomics, HeLa Kyoto cells were incubated with 20 nM Calyculin A (CST, #9902) for 10–15 min. This time point was determined empirically to yield maximal phosphatase inhibition without cells showing pleiotropic effects. Subsequently, cells were placed on ice and washed twice with cold PBS and scraped in lysis buffer (100 mM NaCl, 10 mM Tris, 0.1% IGEPAL, 1 mM EDTA, 1 mM EGTA, 20 nM Calyculin A, 1x cOmplete Mini protease inhibitor cocktail (Sigma), 1 mM DTT, 1 mM MnCl2, pH 7.5). After 10 pushes through an injection needle (21 G, BD), lysate was cleared from the insoluble fraction by centrifugation (10 min, 10^4 rcf, 4 °C). Protein concentration was then determined by a Bradford Assay and equal amounts of 1 mg total protein were incubated with recombinant PP1c/PP2Ac or buffer at a final phosphatase concentration of 1 µM in a total volume of 200 µL for 1 h at 30 °C. Lysates were then immediately placed on ice. PhosStop […] (Roche) was added and proteins were denatured by adding urea to a final concentration of 8 M taking into account the volume increase. Samples were then snap-frozen in liquid nitrogen for storage and subsequent MS analysis.
# Downstream analysis of the phosphoproteomic datasets was carried out using the software tool Perseus[66]. For analysis of phosphoproteomic experiments, row-wise, median-normalized data (see previous section) was linked to known regulatory sites by PhosphoSitePlus entries and categorical columns for treatments were assigned. Reverse peptides and potential contaminants were filtered. Next, categorical columns for biological functions and treatments were assigned. TMT reporter intensities were then transformed into log2. At this point, all data were then filtered for valid values in all three replicates of at least one condition. Next, the distribution of TMT reporter intensities was assessed visually by plotting count-based histogramms and in a multiscatter plot using the Pearson correlation as an estimate of reproducibility. Next, NA (=not available: missing) values were replaced by imputation from a normal distribution (width 0.3, down-shift 1.8, per column). The data quality was routinely assessed by two means: First, by plotting a histogram of peptide length vs. counts and visualization of imputed values to confirm a normal distribution of the data, and secondly by principal component analysis (default settings in Perseus) to judge the sample grouping.
# For hierarchical clustering, the results of the one-way ANOVA were processed for two more steps in Perseus: first data were filtered for significant hits from the one-way ANOVA and then subjected to z-transformation. Hierarchical clustering images were produced using Euclidean distance, 300 clusters and 10 rounds of iteration.
# Also all further data processing for protein enrichment and extraction of protein sequences in positions −5 to +5 relative to the p-sites of interest for subsequent motif analysis was performed using RStudio with R v3.3.2 using the packages tidyverse and BioStrings. In order to study the sequence specificity of PP1c and PP2Ac on the protein level, position specific probability matrices, representing the relative occurrence for each amino acid surrounding pSer/pThr were produced by extracting sequence information in positions −5 to +5 for all PP1c/PP2Ac-sensitive class I p-sites. Next, the count for each amino acid in each position was divided by the total of all counts for a certain position, resulting in relative abundance. […] Importantly, amino acids with less than 25 counts in PP1-sensitive/-insensitive or PP2A-sensitive/insensitive comparisons were excluded. For calculating a heat map directly comparing PP1c against PP2Ac, these fold changes were divided. […] Obtained p-values were adjusted for multiple testing using the method of Benjamini and Hochberg.
# PP1c/PP2Ac-sensitive class I sites were divided into three classes as illustrated for PP1c in Supplementary Fig. 4c. […]
row,Substance,GAB2 pS210 dephosphorylation in phosphoproteomic assay
1,LHQCISRRAENARSASFSQGTRASFLMRSDT [GAB2 210],dephosphorylated by PP1c but not PP2Ac

# Same assay, conditions: p-site significantly decreased exclusively by PP1c or PP2Ac; 1 µM phosphatase, HeLa Kyoto lysate, 1 h, 30 °C
row,Sensitivity (phosphatase exclusively dephosphorylating the p-site),Substance
1,PP1c,"SRSF2 189: S/R-rich splicing factor p-site, window RSRSRSRSPPP"
2,PP1c,KGDIKSKSRSRSQSRSNSPLPVPPSKARSVS [SRSF6 301]
3,PP2Ac,"SRSF4/5/6 113;117;119: S/R-rich splicing factor p-site, window VENLSSRCSWQ"
4,PP1c,LHQCISRRAENARSASFSQGTRASFLMRSDT [GAB2 210]
5,PP1c,"SRSF8 163: S/R-rich splicing factor p-site, window SPYSRSPYSRS"
6,PP1c,HPPRKISTEDINKRLSLPADIRLPEGYLEKL [CDK16 119]
7,PP1c,KRKSKSRSRSKRPPKSPEEEGQMSS______ [SRSF8 273]
8,PP1c,ISPTIVQQFGYQRRASDDGKLTDPSKTSNTI [RAF1 43]
9,PP1c,"SRSF10 133: S/R-rich splicing factor p-site, window RSRSRSFDYNY"
10,PP1c,"SRSF5 233: S/R-rich splicing factor p-site, window RSVSRSPVPEK"
11,PP1c,"SRSF2 191: S/R-rich splicing factor p-site, window RSRSRSPPPVS"
12,PP1c,NIFSRGANRMRGRLGSVDSFERSNSLASEKD [TBC1D4 588]
13,PP1c,EVPVPPPVPPRRRPESAPAESSPSKIMSKHL [SOS1 1161]
14,PP1c,"USP8 718: 14-3-3 interaction site, window LKRSYSSPDIT"
15,PP1c,"SRSF7 192: S/R-rich splicing factor p-site, window SRYFQSPSRSR"
16,PP1c,SPPPVSKRESKSRSRSKSPPKSPEEEGAVSS [SRSF2 206]
17,PP2Ac,"YAP1 127: 14-3-3 interaction site, window VRAHSSPASLQ"
18,PP2Ac,"HSF1 303: 14-3-3 interaction site, window KEEPPSPPQSP"
19,PP1c,"SRSF8 158: S/R-rich splicing factor p-site, window SRYSRSPYSRS"
20,PP1c,"SRSF1 199: S/R-rich splicing factor p-site, window VDGPRSPSYGR"
21,PP1c,"SRSF5 231: S/R-rich splicing factor p-site, window KSRSVSRSPVP"
22,PP2Ac,"SRSF11 207: S/R-rich splicing factor p-site, window AAGLVSPSLKS"
23,PP2Ac,"HSF1 307: 14-3-3 interaction site, window PSPPQSPRVEE"

# Biological target: T1, PP2Ac (Homo sapiens, UniProt P67775)
# T1 construct: purchased Cayman Chemical 10011237
# Assay: Kinetics of phosphopeptide dephosphorylation by PP2Ac (EnzChek Phosphate Assay)
# Format: biochemical
# Settings: non-competitive phosphatase activity assay, Supplementary Fig. 3c
# Description: (§1) Prior to library dephosphorylation with subsequent MS analysis, as well as for the confirmation of MS results by directed peptide synthesis and dephosphorylation kinetics, the release of phosphate over time from peptides or libraries had to be monitored: The libraries and peptides were dissolved in 25% DMSO and 75% H2O at 10 mM. The EnzChek Phosphate Assay Kit (Thermo Fisher Scientific) was used to assess the kinetics/dynamics of the library or peptide dephosphorylation by PP1c and PP2Ac. The assay was carried out in a volume of 100 µL reaction buffer (20 mM Tris, 100 mM NaCl, 1 mM DTT, 0.15 units PNP, 0.2 mM MESG,) containing 100 µM phosphopeptide library or indicated concentrations of peptide and 25 nM phosphatase. Because of our goal to identify differences in selectivity, we used equimolar concentrations of the phosphatases. […] The change of absorbance was detected at 360 nm at 25 °C on a Synergy H4 microplate reader using the software Gen5. […] For analysis of enzyme kinetics, raw data were further analyzed in GraphPad Prism v6.
# (§2) The datasets of Nterm or Cterm libraries treated with recombinant PP1c and PP2Ac were used. […] Data analysis was carried out in GraphPad Prism v6 and the kcat/Km was calculated by comparison to a phosphate standard. […]
# T1 sequence (P67775 1-308 limits assumed): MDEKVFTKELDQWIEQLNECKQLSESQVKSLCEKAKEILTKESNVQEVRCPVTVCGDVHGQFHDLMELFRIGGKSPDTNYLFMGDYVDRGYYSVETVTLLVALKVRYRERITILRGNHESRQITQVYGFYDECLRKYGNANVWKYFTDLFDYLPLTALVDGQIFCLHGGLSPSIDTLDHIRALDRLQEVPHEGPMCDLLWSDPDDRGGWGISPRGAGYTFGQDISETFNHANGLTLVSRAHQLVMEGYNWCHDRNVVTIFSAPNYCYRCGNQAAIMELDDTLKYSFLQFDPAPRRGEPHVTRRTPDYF
row,dephosphorylation by PP2Ac of peptide with Pro in +1 (in words),Substance
1,unable to dephosphorylate,AAAApTPFGAK [Cterm peptide with Pro in +1]

# Biological target: T2, PP1c (Homo sapiens, UniProt P62136)
# T2 construct: His tag with TEV site (N, cleaved yes); intein (pTXB1) (C, cleaved yes); made in house; host or cells: E. coli BL21Star(DE3)pRARE
# Assay: Kinetics of phosphopeptide dephosphorylation by PP1c (EnzChek Phosphate Assay)
# Format: biochemical
# Settings: non-competitive phosphatase activity assay, Supplementary Fig. 3c
# Description: as §1, §2
# T2 sequence (P62136 whole entry): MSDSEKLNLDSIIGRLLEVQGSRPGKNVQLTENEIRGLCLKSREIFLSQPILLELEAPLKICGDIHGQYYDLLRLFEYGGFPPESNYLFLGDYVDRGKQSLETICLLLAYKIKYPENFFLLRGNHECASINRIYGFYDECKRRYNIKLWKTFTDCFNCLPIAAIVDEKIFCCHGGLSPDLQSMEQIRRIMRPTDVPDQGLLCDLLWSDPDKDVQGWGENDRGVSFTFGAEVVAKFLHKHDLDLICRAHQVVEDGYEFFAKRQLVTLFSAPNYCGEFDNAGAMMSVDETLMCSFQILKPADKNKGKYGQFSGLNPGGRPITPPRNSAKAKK
row,dephosphorylation by PP1c of peptide with Pro in +1 (in words),Substance
1,good substrate,AAAApTPFGAK [Cterm peptide with Pro in +1]
